In patent US20180188270A1, “DIAGNOSTIC TEST FOR ALZHEIMER'S DISEASE BASED ON IDENTIFICATION OF A PROTEOLYTIC PATHWAY” (Health Research, Inc., priority 2015, published 2018):
“Also recorded” adds a separate entry of the source.

Columns and labels:
[1] = tested on: plasma hAβ1-42; test: Effects of oral anticoagulants on plasma level of hAβ1-42 in mice; type: in vivo; conditions: for elevation of plasma levels of hAβ1-42: hAβ1-42 40 μg/kg, 6 h; for top dose tested is the maximal soluble dose: mouse, in vivo
Protocol: Blood was collected into K3 EDTA-containing tubes (Multivette 600 from Sarstedt). […] Rivaroxaban, dabigatran (dabigatran elexilate) and warfarin (warfarin sodium tablets) were from Bristol-Myers-Squibb, Combi-Blocks, and Advanced Chemblocks, respectively. Rivaroxaban was dissolved in 10% ethanol, 40% Solutol HS15 (Sigma) and 50% water and was administered to mice in 0.2 ml volume per 20 g body weight. Dabigatran was dissolved in 2% dimethyl sulfoxide in soy oil (Sigma) and was also administered to mice in 0.2 ml volume per 20 g body weight. Warfarin was dissolved in water and was administered to mice in 0.1 ml volume per 20 g body weight.

[2] = tested on: plasma PEPD; test: Plasma PEPD concentration in mice by ELISA; type: in vivo, mouse; conditions: CCl4 0.5 g/kg i.p., 24 h
Protocol: (§1) Animal studies. All animal studies were performed in accordance with protocols approved by the Institutional Animal Care and Use Committee at Roswell Park Cancer Institute. Male mice at 7-8 weeks of age were used, including wild type (WT) mice (C57BL/6), and mice deficient in FXII (C57BL/6-FXII^−/−) or FVII (C57BL/6-FVII^tTA/tTA). WT C57BL/6 mice were purchased from Taconic. C57BL/6-FXII^−/− mice and C57BL/6-FVII^tTA/tTA mice were bred in our own facility and genotyped. The breeders were kindly provided by Dr. Francis J. Castellino at University of Notre Dame. […] CCl4 was dissolved in corn oil, whereas all other substances were dissolved in PBS. The vehicle or the test substance was given to mice in 0.1 ml volume per 20 g body weight. Blood was collected from the mice at specific times by cardiac puncture at the time of sacrifice by carbon dioxide, and heart, liver and kidney were also collected from some of the mice. Blood was collected into K3 EDTA-containing tubes (Multivette 600 from Sarstedt), unless specified otherwise. All blood samples were promptly centrifuged to obtain plasma samples.
Measurement of plasma levels of PEPD, SRC, Aβ1-42 and FI. […] The plates were washed three times with phosphate buffered saline tween-20 (PBST) and the coated wells were blocked by incubation with 200 μl/well of 1% BSA in PBS for at least 2 h at RT. After another round of wash with PBST, the plates were incubated with appropriately diluted Aβ1-42 standard, SRC standard or plasma samples (100 μl/well) for 2 h at RT. The plates were then washed with PBST and incubated with an anti-Aβ1-42 rabbit polyclonal antibody (sc-9129) or anti-SRC rabbit monoclonal antibody (2123) at 100 μl/well for 2 h at RT. The plates were washed again with PBST, and each well was incubated with a goat anti-rabbit IgG-HRP conjugate (100 μl) for 1 h at RT. After yet another round of wash with PBST, each well was incubated with 100 μl of HRP substrate 3,3′,5,5′-tetramethylbenzedine (Cell Signaling, 7004). Upon adequate color development, 100 μl of stop solution (Cell Signaling, 7002) was added to each well, and absorbance at 450 nm was promptly recorded by a microtiter plate reader. Plasma FI concentration was determined using an assay kit (400-374-130050) from GenWay Biotech, following the manufacturer's instruction.

[3] = tested on: plasma mSRC; test: Plasma SRC concentration in mice by ELISA; type: in vivo, mouse; conditions: FXII−/− mice, CCl4 0.5 g/kg or hPEPD 4 mg/kg i.p., 24 h
Protocol: as §1, with “Blood was collected into K3 EDTA-containing tubes (Multivette 600 from Sarstedt), unless specified otherwise. All blood samples were promptly centrifuged to obtain plasma samples.” left out
Measurement of plasma levels of PEPD, SRC, Aβ1-42 and FI. […] Upon adequate color development, 100 μl of stop solution (Cell Signaling, 7002) was added to each well, and absorbance at 450 nm was promptly recorded by a microtiter plate reader. Plasma FI concentration was determined using an assay kit (400-374-130050) from GenWay Biotech, following the manufacturer's instruction.

[4] = tested on: plasma Aβ1-42; test: Plasma Aβ1-42 concentration in mice by ELISA; type: in vivo, mouse; conditions: FXII−/− mice, CCl4 0.5 g/kg or hPEPD 4 mg/kg i.p., 24 h
Protocol: Animal studies. All animal studies were performed in accordance with protocols approved by the Institutional Animal Care and Use Committee at Roswell Park Cancer Institute. Male mice at 7-8 weeks of age were used, including wild type (WT) mice (C57BL/6), and mice deficient in FXII (C57BL/6-FXII^−/−) or FVII (C57BL/6-FVII^tTA/tTA). WT C57BL/6 mice were purchased from Taconic. C57BL/6-FXII^−/− mice and C57BL/6-FVII^tTA/tTA mice were bred in our own facility and genotyped. […] CCl4 was dissolved in corn oil, whereas all other substances were dissolved in PBS. The vehicle or the test substance was given to mice in 0.1 ml volume per 20 g body weight. Blood was collected from the mice at specific times by cardiac puncture at the time of sacrifice by carbon dioxide, and heart, liver and kidney were also collected from some of the mice. Blood was collected into K3 EDTA-containing tubes (Multivette 600 from Sarstedt), unless specified otherwise. All blood samples were promptly centrifuged to obtain plasma samples.

[5] = tested on: liver; test: Liver damage after CCl4: plasma AST and ALT, liver weight; type: in vivo, mouse; conditions: WT mice and FXII−/− mice, CCl4 0.5 g/kg i.p., 24 h
Protocol: as §1
Measurement of Plasma Levels of Aspartate Transaminase (AST) and Alanine Transaminase (ALT). Plasma AST activity was measured using the Infinity™ AST (GOT) Reagent kit (Thermo, TR70121). Plasma ALT activity was measured using the Infinity™ ALT (GPT) Reagent kit (Thermo, TR71121). […]

[6] = tested on: ERBB1 and ERBB2; test: Tissue levels and phosphorylation of ERBB1 and ERBB2 by IB; type: in vivo, mouse; conditions: CCl4 0.5 g/kg or hPEPD 4 mg/kg i.p., 24 h
Protocol: as §1
IB. […] Protein concentrations in all samples were measured by the BCA assay kit. […] The proteins were transferred to polyvinylidene fluoride membrane, probed with specific antibodies and detected using the ECL Plus Kit (Amersham) or the SuperSignal West Pico Kit (Thermo Scientific).

[7] = tested on: FXII; test: FXII activation, chromogenic assay; type: biochemical, human; conditions: FXII 0.97 nM, ZnCl2-containing PBS, RT
Protocol: Measurement of FXII activation. […] FXII activation was followed for 3 h at RT by monitoring the conversion of the chromogenic substrate at 405 nm by a microtiter plate reader.
Each value is mean±SD (n=3).

[8] = tested on: FXII; test: Binding to coagulation factor FXII (IP and IB); set-up: species or system human; conditions: 40 nM (hAβ1-42 200 nM) with FXII in PBS, 2 h
Protocol: Binding reactions were carried out in PBS in a total volume of 100 μl for 2 h at 37° C. To assess binding of hPEPD to HMWK, PK, FXI, FXII or a FXII mutant, hPEPD at 40 nM was incubated with a potential binding partner at 0.5 μM. All FXII mutants are His tagged, while FXII is either 6XHis-tagged (generated in our own laboratory) or not His-tagged (purchased commercially), depending on the experiment. To compare hPEPD and its mutants for binding to FXII, hPEPD or a mutant (40 nM) was incubated with FXII at 0.5 μM. Likewise, to assess binding of mSRC to FXII and its mutants, mSRC (40 nM) was incubated with FXII or a mutant at 0.5 μM. At the end of the incubation, 300 μl PBS containing a specific primary antibody was added to the incubation solution, which was further incubated at 4° C. overnight, followed by IP by protein G-agarose, and the precipitates were analyzed by IB. […] The precipitates were re-dissolved in 30 μl of 2% SDS, which were analyzed along with the supernatants by IB.

[9] = tested on: plasma coagulation factors FXII, PK, HMWK, FXI, FIX, FX, FII, FI and FVII; test: Changes in plasma coagulation factors in mice by IB (FI by ELISA); type: in vivo, mouse; conditions: WT mice, 6 h after i.p. treatment
Protocol: Animal studies. […] Male mice at 7-8 weeks of age were used, including wild type (WT) mice (C57BL/6), and mice deficient in FXII (C57BL/6-FXII^−/−) or FVII (C57BL/6-FVII^tTA/tTA). WT C57BL/6 mice were purchased from Taconic. C57BL/6-FXII^−/− mice and C57BL/6-FVII^tTA/tTA mice were bred in our own facility and genotyped. […] CCl4 was dissolved in corn oil, whereas all other substances were dissolved in PBS. The vehicle or the test substance was given to mice in 0.1 ml volume per 20 g body weight. Blood was collected from the mice at specific times by cardiac puncture at the time of sacrifice by carbon dioxide, and heart, liver and kidney were also collected from some of the mice. Blood was collected into K3 EDTA-containing tubes (Multivette 600 from Sarstedt), unless specified otherwise. All blood samples were promptly centrifuged to obtain plasma samples.
The plates were washed three times with phosphate buffered saline tween-20 (PBST) and the coated wells were blocked by incubation with 200 μl/well of 1% BSA in PBS for at least 2 h at RT. […] The plates were washed again with PBST, and each well was incubated with a goat anti-rabbit IgG-HRP conjugate (100 μl) for 1 h at RT. After yet another round of wash with PBST, each well was incubated with 100 μl of HRP substrate 3,3′,5,5′-tetramethylbenzedine (Cell Signaling, 7004). Upon adequate color development, 100 μl of stop solution (Cell Signaling, 7002) was added to each well, and absorbance at 450 nm was promptly recorded by a microtiter plate reader. Plasma FI concentration was determined using an assay kit (400-374-130050) from GenWay Biotech, following the manufacturer's instruction.
IB. Tissue samples were mixed with RIPA buffer (25 mM Tris-HCl, pH 7.6, 150 mM NaCl, 1% Nonidet P-40, 1% sodium deoxycholate, 0.1% SDS), supplemented with 2 mM phenylmethanesulfonyl fluoride, a proteinase inhibitor mix (Roche Applied Science) and phosphatase inhibitor Cocktail 2 (Sigma-Aldrich). Tissue samples were stroked in a Dounce homogenizer, and the homogenates were cleared by centrifugation at 12,000×g for 15 min at 4° C. Protein concentrations in all samples were measured by the BCA assay kit. Plasma samples were used without further processing (20 μl per sample). Each sample was mixed with 4× loading dye, heated for 5 min at 95° C. and then resolved by SDS-PAGE (8-12.5%). […] The proteins were transferred to polyvinylidene fluoride membrane, probed with specific antibodies and detected using the ECL Plus Kit (Amersham) or the SuperSignal West Pico Kit (Thermo Scientific).

For CC(=O)CC(c1ccccc1)c1c(O)c2ccccc2oc1=O (centres unmarked) [warfarin], the “elevation of plasma levels of hAβ1-42” value ([1]; warfarin 1 mg/kg oral once daily 5 days) was 33.2 fold and the “elevation of plasma levels of hAβ1-42” value ([1]; warfarin 3 mg/kg oral once daily 5 days) was 42.4 fold.

For O=C(NC[C@H]1CN(c2ccc(N3CCOCC3=O)cc2)C(=O)O1)c1ccc(Cl)s1 [rivaroxaban], the “relative effectiveness in elevating plasma hAβ1-42 level” value ([1]; comparison among warfarin, rivaroxaban, dabigatran and with EP) was “the most effective; also recorded: not as effective as EP”, the “top dose tested is the maximal soluble dose” value [1] was “maximal soluble doses” and the “elevation of plasma levels of hAβ1-42” value ([1]; rivaroxaban 10 mg/kg oral once daily 5 days) was 47.2 fold. The “elevation of plasma levels of hAβ1-42” value ([1]; rivaroxaban 20 mg/kg oral once daily 5 days) was 55.5 fold.

With ClC(Cl)(Cl)Cl [CCl4, Carbon tetrachloride] the “plasma level of mPEPD, increase” value ([2]; FXII−/− mice) was 16.7 fold, the “plasma level of mPEPD, increase” value ([2]; WT mice) was 3.7 fold and the “average plasma level of mSRC, increase” value [3] was 6.7%. For the same molecule, the “average plasma level of mAβ1-42, increase” value [4] was 24.9%, the “liver damage (plasma AST, ALT, liver weight)” value [5] was “caused significant but similar liver damage” and the “changes in ERBB1/ERBB2 tyrosine phosphorylation and receptor depletion in heart, kidney and liver, WT mice compared to FXII−/− mice” value [6] was “reduced changes in receptor tyrosine phosphorylation”.

For [H]/N=C(/N)c1ccc(NCc2nc3cc(C(=O)N(CCC(=O)O)c4ccccn4)ccc3n2C)cc1 [dabigatran], the “elevation of plasma levels of hAβ1-42” value ([1]; dabigatran 22.5 mg/kg oral once daily 5 days) was 14.1 fold, the “elevation of plasma levels of hAβ1-42” value ([1]; dabigatran 45 mg/kg oral once daily 5 days) was 21.3 fold and the “top dose tested is the maximal soluble dose” value [1] was “maximal soluble doses”.

B1: 1M-228Hdel-hPEPD: hPEPD mutant named only once; probably 1M-265Rdel-hPEPD (protein, UniProt P12955 229-493, looked up, fragment)
chain: YCYSRGGMRHSSYTCICGSGENSAVLHYGHAGAPNDRTIQNGDMCLFDMGGEYYCFASDITCSFPANGKFTADQKAVYEAVLRSSRAVMGAMKPGVWWPDMHRLADRIHLEELAHMGILSGSVDAMVQAHLGAVFMPHGLGHFLGIDVHDVGGYPEGVERIDEPGLRSLRTARHLQPGMVLTVEPGIYFIDHLLDEALADPARASFLNREVLQRFRGFGGVRIEEDVVVTDSGIELLTCVPRTVEEIEACMAGCDKAFTPFSGPK
B1 was tested, and the “FXII activation, activity relative to hPEPD” value [7] was “about 50%”.

B2: 1M-265Rdel-hPEPD: hPEPD deletion mutant, cannot form homodimers (protein, UniProt P12955 266-493, looked up, fragment)
chain: TIQNGDMCLFDMGGEYYCFASDITCSFPANGKFTADQKAVYEAVLRSSRAVMGAMKPGVWWPDMHRLADRIHLEELAHMGILSGSVDAMVQAHLGAVFMPHGLGHFLGIDVHDVGGYPEGVERIDEPGLRSLRTARHLQPGMVLTVEPGIYFIDHLLDEALADPARASFLNREVLQRFRGFGGVRIEEDVVVTDSGIELLTCVPRTVEEIEACMAGCDKAFTPFSGPK
For B2, the “binding to FXII” value [8] was “almost indistinguishable from hPEPD in FXII binding”.

B3: 185V-493Kdel-hPEPD: hPEPD deletion mutant, cannot form homodimers (protein, UniProt P12955 1-184, looked up, fragment)
chain: MAAATGPSFWLGNETLKVPLALFALNRQRLCERLRKNPAVQAGSIVVLQGGEETQRYCTDTGVLFRQESFFHWAFGVTEPGCYGVIDVDTGKSTLFVPRLPASHATWMGKIHSKEHFKEKYAVDDVQYVDEIASVLTSQKPSVLLTLRGVNTDSGSVCREASFDGISKFEVNNTILHPEIVECR
For B3, the “binding to FXII” value [8] was “neither 185V-493Kdel-hPEPD nor 266T-493Kdel-hPEPD could bind to FXII”.

B4: 266T-493Kdel-hPEPD: hPEPD deletion mutant, cannot form homodimers (protein, UniProt P12955 1-265, looked up, fragment)
chain: MAAATGPSFWLGNETLKVPLALFALNRQRLCERLRKNPAVQAGSIVVLQGGEETQRYCTDTGVLFRQESFFHWAFGVTEPGCYGVIDVDTGKSTLFVPRLPASHATWMGKIHSKEHFKEKYAVDDVQYVDEIASVLTSQKPSVLLTLRGVNTDSGSVCREASFDGISKFEVNNTILHPEIVECRVFKTDMELEVLRYTNKISSEAHREVMKAVKVGMKEYELESLFEHYCYSRGGMRHSSYTCICGSGENSAVLHYGHAGAPNDR
B4 was tested, and the “binding to FXII” value [8] was “neither 185V-493Kdel-hPEPD nor 266T-493Kdel-hPEPD could bind to FXII”.

B5: mPEPD: mouse PEPD purified from mouse kidney by immunoaffinity purification, without any tag (protein, UniProt Q11136 2-493, looked up)
Xaa-Pro dipeptidase: ASTVRPSFSLGNETLKVPLALFALNRQRLCERLRKNGAVQAASAVVLQGGEEMQRYCTDTSIIFRQESFFHWAFGVVESGCYGVIDVDTGKSTLFVPRLPDSYATWMGKIHSKEYFKEKYAVDDVQYTDEIASVLTSRNPSVLLTLRGVNTDSGSVCREASFEGISKFNVNNTILHPEIVECRVFKTDMELEVLRYTNRISSEAHREVMKAVKVGMKEYEMESLFQHYCYSRGGMRHTSYTCICCSGENAAVLHYGHAGAPNDRTIKDGDICLFDMGGEYYCFASDITCSFPANGKFTEDQKAIYEAVLRSCRTVMSTMKPGVWWPDMHRLADRIHLEELARIGLLSGSVDAMLQVHLGAVFMPHGLGHFLGLDVHDVGGYPEGVERIDEPGLRSLRTARHLEPGMVLTVEPGIYFIDHLLDQALADPAQACFFNQEVLQRFRNFGGVRIEEDVVVTDSGMELLTCVPRTVEEIEACMAGCDKASVPFSGQK
B5 was tested, and the “activation/cleavage of plasma coagulation factors” value [9] was “elicited the same response as did hPEPD”.
